Experimental data published in patent US20220213128A1 (RockGen Therapeutics LLC, priority 2021, published 2022).

Tests used:
[1] = cited from earlier work
[2] = Human Metabolome Database; cited from earlier work
[3] = Plasma stability assay and LC-MS/MS; stability in solution; assay type: in vitro ADME; details: compared with the other designed compounds
Procedure: Having described the compounds generally, including the preferred compound candidates for use in the treatment of PD, the method utilized to test and produce the compounds may now be described. […] The stability of these compounds is determined using a plasma stability assay and LC-MS/MS. The assays are utilized to assess each compound's activity and cellular permeability human dopaminergic neuronal precursor cell lines and Caco-2 cells. […] A in silico analysis may be used to predict bioavailability, BBB penetration, and PK/PD profiles in the peripheral and central nervous system.

SMILES | bioavailability ([1]; after peripheral conversion and gut metabolism) [%] | fraction of oral dose that may reach the brain ([1]; certain formulations, at best) | lipophilicity, determined experimental value [2] | stability in aqueous solutions and plasma [3]
N[C@@H](Cc1ccc(O)c(O)c1)C(=O)O [L-Dopa, L-3,4-dihydroxyphenylalanine] | 1 | 5-10% | −2.39 | 
N[C@@H](Cc1ccc(OC(=O)CCCC[C@@H]2CCSS2)c(O)c1)C(=O)O [RG-1] |  |  |  | more stable
N[C@@H](Cc1ccc(OC(=O)CCCC[C@@H]2CCSS2)c(O)c1)B(O)O [RG-2] |  |  |  | more stable
C[Si](C)(C)CCc1ccc(C[C@@H](N)Cc2ccc(OC(=O)CCCC[C@@H]3CCSS3)c(O)c2)cc1 [RG-4] |  |  |  | more stable
